The results in this text go back to patent publication EP4104902B1, “COMPOUNDS AND M[…] SAME” (priority 2020, dated 2021).

The test system of the assay is recombinant rabies virus 1088 strain expressing Gaussia Luciferase (GLuc) (1088/GLuc). It counts as cell-based. The settings on record: read-out: Anti-rabies activity.

pIC50: −log10 of the molar value.

As for `N=C(N)NCCCNC(=O)[C@]12NC[C@@H]3C[C@H]1CN(Cc1cccc4ccccc14)[C@H]2[C@@H]3CCc1ccccc1` (relative stereo) [IB-354], the pIC50 was greater than 5.30. Then `CC(C)CC[C@@H]1[C@@H]2CN[C@@]3(C(=O)NCCC(N)=O)[C@@H](C2)CN(CC2CCCCC2)[C@@H]13` (relative stereo) [IB-357], with 4.52 to 5.00; and `CC(C)CC[C@@H]1[C@@H]2CN[C@@]3(C(=O)NCCCNC(=N)N)[C@@H](C2)CN(CC2CCCCC2)[C@@H]13` (relative stereo) [IB-361], with 4.52 to 5.00; and `N=C(N)NCCCNC(=O)[C@]12NC[C@@H]3C[C@H]1CN(CC1CCCCC1)[C@H]2[C@@H]3CCc1ccccc1` (relative stereo) [IB-362], with greater than 5.30. The value for `CC(C)CC[C@@H]1[C@@H]2CN[C@@]3(C(=O)NCCC(N)=O)[C@@H](C2)CN(Cc2ccc(F)cc2)[C@@H]13` (relative stereo) [IB-365] was 4.52 to 5.00; that for `CC(C)CC[C@@H]1[C@@H]2CN[C@@]3(C(=O)NCCCNC(=N)N)[C@@H](C2)CN(Cc2ccc(F)cc2)[C@@H]13` (relative stereo) [IB-369] was 4.52 to 5.00; that for `CC(C)CC[C@@H]1[C@@H]2CN[C@@]3(C(=O)NCC(C)C)[C@@H](C2)CN(CCO)[C@@H]13` (relative stereo) [IB-372] was 4.52 to 5.00. As for `CC(C)CC[C@@H]1[C@@H]2CN[C@@]3(C(=O)NCC(C)C)[C@@H](C2)CN(CC(C)C)[C@@H]13` (relative stereo) [IB-378], the pIC50 was greater than 5.30. With `CC(C)CCN1C[C@@H]2C[C@H]3CN[C@]2(C(=O)NCCC(=O)O)[C@@H]1[C@@H]3Cc1cccc2ccccc12` (relative stereo) [IB-381], the pIC50 is 4.52 to 5.00. The value for `CC(C)CNC(=O)[C@]12NC[C@@H]3C[C@H]1CN(CCC(=O)O)[C@H]2[C@@H]3CCc1ccccc1` (relative stereo) [IB-430] was greater than 5.30; that for `CC(C)CNC(=O)[C@]12NC[C@@H]3C[C@H]1CN(CCC(=O)O)[C@H]2[C@@H]3CO` (relative stereo) [IB-431] was 4.52 to 5.00; that for `CC(C)C[C@@H]1[C@@H]2CN[C@@]3(C(=O)NCc4ccc(O)cc4)[C@@H](C2)CN(CCc2ccccc2)[C@@H]13` (relative stereo) [IB-449] was 4.52 to 5.00. The value for `CC(C)C[C@@H]1[C@@H]2CN[C@@]3(C(=O)NCc4ccc(O)cc4)[C@@H](C2)CN(Cc2ccc(F)cc2)[C@@H]13` (relative stereo) [IB-458] was 4.52 to 5.00; that for `O=C(NCCO)[C@]12NC[C@@H]3C[C@H]1CN(Cc1cccc4ccccc14)[C@H]2[C@@H]3Cc1ccc(O)cc1` (relative stereo) [IB-459] was 4.52 to 5.00; that for `CC(C)CC[C@@H]1[C@@H]2CN[C@@]3(C(=O)NCCO)[C@@H](C2)CN(CCc2ccccc2)[C@@H]13` (relative stereo) [IB-461] was 4.52 to 5.00.

For the compound `CC(C)C[C@@H]1[C@@H]2CN[C@@]3(C(=O)NCc4ccc(O)cc4)[C@@H](C2)CN(Cc2ccccc2)[C@@H]13` (relative stereo) [IB-464], the pIC50 was greater than 5.30. `CC(C)CC[C@@H]1[C@@H]2CN[C@@]3(C(=O)NCc4ccc(O)cc4)[C@@H](C2)CN(CC(C)C)[C@@H]13` (relative stereo) [IB-465]: the pIC50 was 4.52 to 5.00. The value for `O=C(NCc1ccc(O)cc1)[C@]12NC[C@@H]3C[C@H]1CN(CCO)[C@H]2[C@@H]3Cc1cccc2ccccc12` (relative stereo) [IB-470] was 4.52 to 5.00; that for `NC(=O)CCNC(=O)[C@]12NC[C@@H]3C[C@H]1CN(CC1CCCCC1)[C@H]2[C@@H]3Cc1cccc2ccccc12` (relative stereo) [IB-522] was 4.52 to 5.00; that for `NC(=O)CCNC(=O)[C@]12NC[C@@H]3C[C@H]1CN(Cc1ccc(F)cc1)[C@H]2[C@@H]3Cc1cccc2ccccc12` (relative stereo) [IB-525] was 4.52 to 5.00. The value for `O=C(NCc1cccc2ccccc12)[C@]12NC[C@@H]3C[C@H]1CN(CCO)[C@H]2[C@@H]3Cc1ccc(O)cc1` (relative stereo) [IB-527] was 4.52 to 5.00.
